Experimental data taken from patent publication US20130011473A1, “Preparation Method Of The Solid Formulation Of Clopidogrel Bisulfate” (priority 2010, published 2013).
Structures can show the parent of a compound that is named as a salt. Where two headings read alike, the source gives them in different places.

Legend:
[1] = system: phosphodiesterase; conditions: cited from earlier work

angle of repose (after being mixed with Colloidal Silicon Dioxide) | angle of repose (as is) | SMILES | phosphodiesterase activity [1]
40 | greater than 45 | COC(=O)[C@H](c1ccccc1Cl)N1CCc2sccc2C1 [Clopidgrel salt, methyl(+)-(S)-α(2-chlorophenyl)-6,7-dihydrothieno[3,2-c]pyridine-5(4H)-acetate sulfate (1:1)] | –
– | – | COC(=O)[C@H](c1ccccc1Cl)N1CCc2sccc2C1 [Clopidogrel] | did not inhibit
